{
  "source": "patent US20260166114A1",
  "about": "“DYNAMIC HYDROGEL COMPOSITIONS” (The Board of Trustees of the Leland Stanford Junior …, priority 2022, published 2026)",
  "test": "Rheological characterization of hydrogel compositions (shear and extensional rheology)",
  "assay_type": "physicochemical",
  "settings": "for change of crossover frequency compared to the Sangelose only hydrogel: 3 wt % Sangelose with 0.75 wt % second agent (αCD 0.05 wt %), 25° C.; for storage modulus (G′) compared to Sangelose only hydrogels / tan (delta) compared to Sangelose only hydrogels: measured at 0.1 rad·s^−1, 3 wt % Sangelose with second agent; for G′ values compared to hydrogels comprising only Sangelose (Tween comparison): at a frequency of 10 rad·s^−1, 3 wt % Sangelose, 0.75 wt % Tween",
  "experimental": "Rheological characterization was performed using a 20-mm diameter serrated parallel plate at a 500-μm gap on a TA Instruments DHR-2 stress-controlled rheometer. All measurements were performed at 25° C. Frequency sweep measurements were performed at a constant 1% strain. Steady shear flow sweeps were performed from high to low shear rates. Stress sweeps were performed from low to high with steady-state sensing and yield stress values defined as the stress at which the viscosity decreases 10% from the maximum. Amplitude sweep measurements were performed at a frequency of 0.1 rad·s^-1. P values are calculated with a one-way ANOVA followed by post hoc Tukey multiple comparison test unless otherwise noted. Extensional rheology was performed on a TA Instruments ARES-G2 rheometer in axial mode using an 8-mm parallel plate geometry (R=4 mm) at a H=4 mm gap, resulting in an aspect ratio of H/R=1. A sample volume of 400 μl was loaded for each of the three replicated measurements. All experiments were performed at 25° C. Samples of the hydrogel compositions were loaded and tested immediately within seconds to minimize dehydration. […] (exponential) strain rates were applied at three different strain rates.",
  "note": "“Also recorded” adds a separate entry of the source.",
  "data": [
    {"molecule": "OCC1O[C@@H]2O[C@@H]3C(CO)O[C@H](O[C@@H]4C(CO)O[C@H](O[C@@H]5C(CO)O[C@H](O[C@@H]6C(CO)O[C@H](O[C@@H]7C(CO)O[C@H](O[C@H]1[C@H](O)[C@H]2O)[C@H](O)[C@H]7O)[C@H](O)[C@H]6O)[C@H](O)[C@H]5O)[C@H](O)[C@H]4O)[C@H](O)[C@H]3O", "note": "(stereo partly drawn) [αCD, α-cyclodextrin]", "values": [
      {"measurement": "change of crossover frequency compared to the Sangelose only hydrogel", "result": "shift rightward"},
      {"measurement": "storage modulus (G′) compared to Sangelose only hydrogels", "result": "lower than the storage modulus of the Sangelose only hydrogels"},
      {"measurement": "tan (delta) compared to Sangelose only hydrogels", "result": "higher than the tan (delta) values of the Sangelose only hydrogels"}
    ]},
    {"molecule": "Span 20", "values": [
      {"measurement": "change of crossover frequency compared to the Sangelose only hydrogel", "result": "did not change the crossover frequency"}
    ]},
    {"molecule": "polyoxyethylene (20) sorbitan monolaurate [Tween 20]", "values": [
      {"measurement": "change of crossover frequency compared to the Sangelose only hydrogel", "result": "shift rightward"},
      {"measurement": "G′ values compared to hydrogels comprising only Sangelose (Tween comparison)", "result": "lower G′ values"},
      {"measurement": "storage modulus (G′) compared to Sangelose only hydrogels", "result": "lower than the storage modulus of the Sangelose only hydrogels"},
      {"measurement": "tan (delta) compared to Sangelose only hydrogels", "result": "higher than the tan (delta) values of the Sangelose only hydrogels; also recorded: significantly higher tan (delta) values"}
    ]},
    {"molecule": "polyoxyethylene (20) sorbitan monooleate [Tween 80]", "values": [
      {"measurement": "change of crossover frequency compared to the Sangelose only hydrogel", "result": "shift rightward"},
      {"measurement": "G′ values compared to hydrogels comprising only Sangelose (Tween comparison)", "result": "lower G′ values"},
      {"measurement": "storage modulus (G′) compared to Sangelose only hydrogels", "result": "lower than the storage modulus of the Sangelose only hydrogels"},
      {"measurement": "tan (delta) compared to Sangelose only hydrogels", "result": "higher than the tan (delta) values of the Sangelose only hydrogels; also recorded: significantly higher tan (delta) values"}
    ]},
    {"molecule": "polyoxyethylene (20) sorbitan monopalmitate [Tween 40]", "values": [
      {"measurement": "G′ values compared to hydrogels comprising only Sangelose (Tween comparison)", "result": "lower G′ values"},
      {"measurement": "tan (delta) compared to Sangelose only hydrogels", "result": "significantly higher tan (delta) values"}
    ]}
  ]
}
